Source: PMC9133015 (Nature Communications, 2022)
Where “and” joins values, the source holds several entries; their conditions need not be identical. Equal values may be shown once.

Experiments:
22Rv1 cells [1] = assay: Anti-proliferation activity assay (CCK8, 72 h); assay type: cell-based, human; details: 22Rv1; for Relative proliferation rate (%) / optical density: replicates
PC-3 cells [2] = assay: Colony formation assay; assay type: cell-based, human; details: 2 µM, replicates
RWPE-1 cells = assay: Anti-proliferation activity assay (CCK8, 72 h); assay type: cell-based; details: RWPE1; for Relative proliferation rate (%) / optical density: replicates
22Rv1 cells [3] = assay: Invasion assay (transwell); assay type: cell-based, human; details: 22Rv1, 0.5 μM, replicates
PC-3 cells [4] = assay: Cell growth assay (5-day course); assay type: cell-based, human; details: PC-3, 4 µM; for Relative proliferation rate / optical density: replicates
DU145 cells = assay: Cell growth assay (5-day course); assay type: cell-based, human; details: DU145, 2 μM
22Rv1 cells [5] = assay: Cell growth assay (5-day course); assay type: cell-based, human; details: 22Rv1, 0.5 µM
DU145 xenograft = assay: In vivo antitumor activity, DU145 xenograft mouse model; parameters: species or system BALB/c nude mice; details: for Body weight (Fig. 7b) / Tumor volume (Fig. 7a): individual mice 1-10

In the case of `CC(=O)c1c(C)c2cnc(Nc3ccc(N4CCNCC4)cn3)nc2n(C2CCCC2)c1=O` [palbociclib], the “Relative proliferation rate (%) mean” value (22Rv1 cells [1]; 0.0049 uM) is reported as 10.7151%, the “Relative proliferation rate (%)” value (22Rv1 cells [1]; 0.0049 uM) is reported as 10.6906% and 8.054% and 13.4011% and the optical density (22Rv1 cells [1]; 0.0049 uM) is reported as 0.944 and 0.959 and 0.937. For the same compound, the “Relative proliferation rate (%) mean” value (22Rv1 cells [1]; 0.078 uM) was 28.5598%, the “Relative proliferation rate (%)” value (22Rv1 cells [1]; 0.078 uM) was 28.5714% and 25.4075% and 31.7006% and the optical density (22Rv1 cells [1]; 0.078 uM) was 0.755 and 0.778 and 0.739. For the same compound, the “Relative proliferation rate (%) mean” value (22Rv1 cells [1]; 0.3125 uM) was 42.3403%, the “Relative proliferation rate (%)” value (22Rv1 cells [1]; 0.3125 uM) was 42.3841% and 37.8715% and 46.7652% and the optical density (22Rv1 cells [1]; 0.3125 uM) was 0.609 and 0.648 and 0.576. The “Relative proliferation rate (%) mean” value (22Rv1 cells [1]; 1.25 uM) was 63.5644%, the “Relative proliferation rate (%)” value (22Rv1 cells [1]; 1.25 uM) was 63.5762% and 60.0192% and 67.098% and the optical density (22Rv1 cells [1]; 1.25 uM) was 0.385 and 0.417 and 0.356. For the same compound, the “Relative proliferation rate (%) mean” value (22Rv1 cells [1]; 5 uM) was 73.8099%, the “Relative proliferation rate (%)” value (22Rv1 cells [1]; 5 uM) was 73.6991% and 70.3739% and 77.3567% and the optical density (22Rv1 cells [1]; 5 uM) was 0.278 and 0.309 and 0.245. The “Relative proliferation rate (%) mean” value (22Rv1 cells [1]; 20 uM) was 83.6751%, the “Relative proliferation rate (%)” value (22Rv1 cells [1]; 20 uM) was 83.6329% and 79.9616% and 87.4307% and the optical density (22Rv1 cells [1]; 20 uM) was 0.173 and 0.209 and 0.136. For the same compound, the “Relative proliferation rate (%) mean” value (22Rv1 cells [1]; 80 uM) was 92.6404%, the “Relative proliferation rate (%)” value (22Rv1 cells [1]; 80 uM) was 92.6206% and 87.0566% and 98.244% and the optical density (22Rv1 cells [1]; 80 uM) was 0.078 and 0.135 and 0.019. For the same compound, the “Colony formation (cell number)” value (PC-3 cells [2]) was 78 cell number and 83 cell number and 81 cell number, the “Relative proliferation rate (%) mean” value (RWPE-1 cells; 0.078 uM) was 4.3459% and the “Relative proliferation rate (%)” value (RWPE-1 cells; 0.078 uM) was 2.8348% and 5.899% and 4.304%. The optical density (RWPE-1 cells; 0.078 uM) was 0.994 and 1.005 and 1.045, the “Relative proliferation rate (%) mean” value (RWPE-1 cells; 0.3125 uM) was 4.485% and the “Relative proliferation rate (%)” value (RWPE-1 cells; 0.3125 uM) was 1.76% and 7.21% and 4.487%. For the same compound, the optical density (RWPE-1 cells; 0.3125 uM) was 1.005 and 0.991 and 1.043, the “Relative proliferation rate (%) mean” value (RWPE-1 cells; 1.25 uM) was 11.7464% and the “Relative proliferation rate (%)” value (RWPE-1 cells; 1.25 uM) was 7.038% and 16.4794% and 11.7216%. For the same compound, the optical density (RWPE-1 cells; 1.25 uM) was 0.951 and 0.892 and 0.964, the “Relative proliferation rate (%) mean” value (RWPE-1 cells; 5 uM) was 24.554% and the “Relative proliferation rate (%)” value (RWPE-1 cells; 5 uM) was 19.1593% and 29.8689% and 24.6337%. The optical density (RWPE-1 cells; 5 uM) was 0.827 and 0.749 and 0.823, the “Relative proliferation rate (%) mean” value (RWPE-1 cells; 20 uM) was 55.5924% and the “Relative proliferation rate (%)” value (RWPE-1 cells; 20 uM) was 50.0489% and 61.1423% and 55.5861%. The optical density (RWPE-1 cells; 20 uM) was 0.511 and 0.415 and 0.485, the “Relative proliferation rate (%) mean” value (RWPE-1 cells; 80 uM) was 75.0851% and the “Relative proliferation rate (%)” value (RWPE-1 cells; 80 uM) was 68.3284% and 81.8352% and 75.0916%. The optical density (RWPE-1 cells; 80 uM) was 0.324 and 0.194 and 0.272, the “Cell invasion (cell number)” value (22Rv1 cells [3]) was 531 cell number and 470 cell number and 513 cell number and the “Relative proliferation rate mean” value (PC-3 cells [4]; day 0) was 1. For the same compound, the Relative proliferation rate (PC-3 cells [4]; day 0) was 1, the optical density (PC-3 cells [4]; day 0) was 0.261 and the “Relative proliferation rate mean” value (PC-3 cells [4]; day 1) was 1.157. For the same compound, the Relative proliferation rate (PC-3 cells [4]; day 1) was 1.143 and 1.182 and 1.147, the optical density (PC-3 cells [4]; day 1) was 0.298 and 0.308 and 0.299 and the “Relative proliferation rate mean” value (PC-3 cells [4]; day 2) was 1.563. The Relative proliferation rate (PC-3 cells [4]; day 2) was 1.569 and 1.565 and 1.554, the optical density (PC-3 cells [4]; day 2) was 0.409 and 0.408 and 0.405 and the “Relative proliferation rate mean” value (PC-3 cells [4]; day 3) was 2.215. For the same compound, the Relative proliferation rate (PC-3 cells [4]; day 3) was 2.206 and 2.244 and 2.194, the optical density (PC-3 cells [4]; day 3) was 0.575 and 0.585 and 0.572 and the “Relative proliferation rate mean” value (PC-3 cells [4]; day 4) was 4.39. For the same compound, the Relative proliferation rate (PC-3 cells [4]; day 4) was 4.419 and 4.354 and 4.396, the optical density (PC-3 cells [4]; day 4) was 1.152 and 1.135 and 1.146 and the “Relative proliferation rate mean” value (DU145 cells; day 1) was 1.596. For the same compound, the “Relative proliferation rate mean” value (DU145 cells; day 2) was 2.367, the “Relative proliferation rate mean” value (DU145 cells; day 3) was 5.211 and the “Relative proliferation rate mean” value (DU145 cells; day 4) was 6.975. The “Relative proliferation rate mean” value (22Rv1 cells [5]; day 1) was 1.1416, the “Relative proliferation rate mean” value (22Rv1 cells [5]; day 2) was 1.363 and the “Relative proliferation rate mean” value (22Rv1 cells [5]; day 3) was 1.755. The “Relative proliferation rate mean” value (22Rv1 cells [5]; day 4) was 2.003, the “antitumor activity (in words)” value (DU145 xenograft; DU145 xenograft, 100 mg/kg orally once a day, seven weeks) was “only delayed the tumor growth” and the “Body weight (Fig. 7b)” value (DU145 xenograft; Day 1) was 20.6 and 19.7 and 20.3 (2×) and 19.6 and 19.8 and 20.4 and 20.1 and 21.5 and 21.1. The “Tumor volume (Fig. 7a)” value (DU145 xenograft; Day 1, in cm³ (unit assumed)) was 0.06799 and 0.07327 and 0.07849 and 0.09349 and 0.07486 and 0.07173 and 0.06955 and 0.08095 and 0.1033 and 0.07176, the “Body weight (Fig. 7b)” value (DU145 xenograft; Day 3) was 20.9 and 20.1 and 20.5 and 19.9 and 20.3 and 20.7 (2×) and 20.4 and 21.5 (2×) and the “Tumor volume (Fig. 7a)” value (DU145 xenograft; Day 3) was 0.109 (2×) and 0.1112 and 0.1321 and 0.1287 and 0.1049 and 0.09325 and 0.1073 and 0.1517 and 0.1054. The “Body weight (Fig. 7b)” value (DU145 xenograft; Day 5) was 21.2 and 20.4 and 20.7 (2×) and 20.2 and 20.5 and 20.8 and 21.6 and 21.8 and 20.9, the “Tumor volume (Fig. 7a)” value (DU145 xenograft; Day 5, in cm³ (unit assumed)) was 0.1433 and 0.1864 and 0.1614 and 0.176 and 0.1543 and 0.1645 and 0.1193 and 0.1528 and 0.2268 and 0.2014 and the “Tumor volume (Fig. 7a)” value (DU145 xenograft; Day 7, in cm³ (unit assumed)) was 0.1784 and 0.235 and 0.2414 and 0.2692 and 0.217 and 0.2962 and 0.1705 and 0.2421 and 0.3416 and 0.2763. For the same compound, the “Body weight (Fig. 7b)” value (DU145 xenograft; Day 7, in g (unit assumed)) was 21.5 and 20.6 and 21 and 20.5 and 20.7 and 21.1 and 20.9 and 21.9 and 22.1 and 21.2, the “Body weight (Fig. 7b)” value (DU145 xenograft; Day 9) was 21.7 and 21 and 21.5 (2×) and 20.9 and 21.3 (2×) and 21.2 and 22.3 and 22.5 and the “Tumor volume (Fig. 7a)” value (DU145 xenograft; Day 9, in cm³ (unit assumed)) was 0.239 and 0.3072 and 0.3051 and 0.3239 and 0.2873 and 0.3055 and 0.2456 and 0.3235 and 0.4654 and 0.3489. For the same compound, the “Body weight (Fig. 7b)” value (DU145 xenograft; Day 11) was 22.1 and 21.4 and 21.9 and 21.2 and 21.6 and 21.7 and 21.5 (2×) and 22.6 and 22.9, the “Tumor volume (Fig. 7a)” value (DU145 xenograft; Day 11, in cm³ (unit assumed)) was 0.3066 and 0.4081 and 0.3897 and 0.4352 and 0.3512 and 0.3909 and 0.2984 and 0.4401 and 0.56 and 0.4357 and the “Tumor volume (Fig. 7a)” value (DU145 xenograft; Day 13, in cm³ (unit assumed)) was 0.3785 and 0.467 and 0.4591 and 0.5566 and 0.4456 and 0.4658 and 0.368 and 0.5218 and 0.6407 and 0.5062. For the same compound, the “Body weight (Fig. 7b)” value (DU145 xenograft; Day 13, in g (unit assumed)) was 22.5 and 21.7 and 22.2 and 21.4 and 21.9 and 22.1 and 21.6 and 23.1 and 23.2 and 21.8, the “Body weight (Fig. 7b)” value (DU145 xenograft; Day 15) was 22.9 and 22 and 22.4 and 21.6 and 22.1 (2×) and 22.5 and 21.7 and 23.3 and 23.5 and the “Tumor volume (Fig. 7a)” value (DU145 xenograft; Day 15, in cm³ (unit assumed)) was 0.4581 and 0.5316 and 0.5555 and 0.6598 and 0.5071 and 0.5543 and 0.4465 and 0.6242 and 0.7718 and 0.6156. For the same compound, the “Body weight (Fig. 7b)” value (DU145 xenograft; Day 17) was 23.1 (2×) and 22.2 and 22.7 (2×) and 21.9 and 22.4 and 21.6 and 23.7 and 22.3, the “Tumor volume (Fig. 7a)” value (DU145 xenograft; Day 17, in cm³ (unit assumed)) was 0.5062 and 0.5921 and 0.6502 and 0.7599 and 0.6087 and 0.6352 and 0.4918 and 0.6837 and 0.8676 and 0.6822 and the “Body weight (Fig. 7b)” value (DU145 xenograft; Day 19) was 23.4 (2×) and 22.5 and 23.1 (2×) and 22.3 and 22.8 and 21.9 and 23.9 and 22.6. The “Tumor volume (Fig. 7a)” value (DU145 xenograft; Day 19, in cm³ (unit assumed)) was 0.5936 and 0.6347 and 0.7034 and 0.8268 and 0.6585 and 0.679 and 0.5363 and 0.7534 and 0.9195 and 0.6727 and the “Tumor weight (Fig. 7c)” value (DU145 xenograft; reference drug groups, individual mice, in g (unit assumed)) was 1.87 and 2.14 and 1.86 and 2.29 and 1.85 and 1.63 and 1.81 and 1.69 and 1.58.
